The values that follow come from patent publication US20250032651A1, “[177LU] LUTETIUM-PSMA I&T COMPOSITION AND DOSIMETRY, KIT, METHOD OF MAKING, AND METHOD OF USING THEREOF” (Curium US LLC, priority 2022, published 2025).

A short description of this data set: Biodistribution: SPECT/CT time-activity curves (fraction of injected activity), whole-body half-lives. It is filed as in vivo, human. Particulars: Cycle 1. Here is the method: This Example presents the biodistribution, dosimetry, and pharmacokinetics (PK) results of a PK/Dosimetry sub-study performed as part of a Phase III trial. Twenty-seven (27) patients were administered a target activity of 7.4±10% GBq of ^177Lu-PSMA-I&T and underwent single photon emission computed tomography (SPECT)/computed tomography (CT) imaging at four timepoints (4 h, 24 h, 48 h, and 168 h). Image data was analysed to compute time-activity curves (TACs) and subsequently time-integrated activity coefficients (TIACs) in each organ of interest and in organs showing appreciable and meaningful ^177Lu-PSMA-I&T activity. Organ Level Internal Dose Assessment (OLINDA 2.2.3) was used to compute organ and whole body absorbed radiation doses for each patient.
All participating sites underwent a rigorous site setup process during which all dose calibrators, scanners, and gamma counters used in the sub-study were calibrated. Sites were allowed to enroll patients in the sub-study only after the completion and approval of all site setup processes by Invicro. Patients underwent SPECT/CT imaging, with anatomical coverage typically extending from the salivary glands to the pelvis, following the administration of a targeted 7.4±10% GBq of ^177Lu-PSMA-I&T at cycle 1. SPECT/CT imaging was performed at four timepoints: 4 h, 24 h, 48 h, and 168 h post-injection. Additionally, a subset of patients imaged at Cycle 1 (16 out of 27), were also imaged at Cycle 3 (Table 2).
Volume of interest (VOI) (kidneys, bladder, liver, lumbar vertebrae L2-L4, lacrimal glands, salivary glands [parotid and submandibular glands], and whole body) were delineated on each dataset by a trained image analyst. […] Organs were segmented either by drawing the entire contour of the organ, or by placing a sphere in a representative region of the organ and then multiplying by the organ's effective mass (based on patient's height and weight). Segmentation methods for each organ are specified in Table 3 and were consistently applied to each patient.
Clearance of the radiopharmaceutical was derived from a data-appropriate fit of each organ's TAC. Depending on the TAC's shape, the data was fitted with the sum of one, two, or three exponentials, or using a rise and fall model. Fitting was performed with in-house Python software. TIACs were calculated through analytical integration of the curve fit extrapolated to infinity. […] A whole-body TAC was derived from delineating the imaged body. The remainder activity was determined by subtracting the cumulative organ TIACs from the whole body TIAC.
Note: the time-activity curves in these figures are not decay-corrected to time of injection.
The whole-body time-activity curves were fitted with bi-exponential equation and the two components were used for the distribution and elimination half-life.

Where [1] appears, read: bi-exponential fit of whole-body time-activity curves, excluding patient 42-030.

Consider `O=C([O-])CC[C@H](NC(=O)N[C@@H](CCCCNC(=O)CCCCCCC(=O)NCCCC[C@@H](NC(=O)[C@@H](Cc1ccccc1)NC(=O)[C@@H](Cc1ccc(O)c(I)c1)NC(=O)CC[C@H](C(=O)[O-])N1CCN(CC(=O)[O-])CCN(CC(=O)[O-])CCN(CC(=O)[O-])CC1)C(=O)[O-])C(=O)[O-])C(=O)[O-].[177Lu+3].[H+].[H+].[H+].[H+].[H+]` [^177Lu-PSMA I&T, (3S,7S,26R,29R,32R,37R)-29-benzyl-32-(4-hydroxy-3-iodobenzyl)-5,13,20,28,31,34-hexaoxo-37-(4,7,10-tris(carboxymethyl)-1,4,7,10-tetraazacyclododecan-1-yl)-4,6,12,21,27,30,33-heptaazaheptatriacontane-1,3,7,26,37-pentacarboxylic acid; lutetium-177 (III)], for which the “whole body mean activity retention at 4 h” value (averaged across patients excluding 42-030) is 44%±13%. Moreover, under setting [1], the “whole-body distribution half-life (mean)” value stood at 2.16 ± 1.30 h and the “whole-body elimination half-life (mean)” value is 46.29 ± 23.83 h. Moreover, under “excluding 42-030”, the “whole body activity retention at 4 h, max” value turned out to be 78% and the “whole body activity retention at 4 h, min” value was determined as 24%. For the same compound, the route of excretion result (visible accumulation in the urinary bladder) is given as “primarily excreted through the urine”.
